{"source": "patent US20230263956A1", "about": "“INGESTIBLE DRUG DELIVERY DEVICE” (Massachusetts Institute of Technology, priority 2020, published 2023)", "test": "In vivo testing: tethered device jetting insulin into the stomach wall", "design": "species or system Yorkshire pigs", "settings": "jet of insulin into stomach wall, 0.5 Units per kilogram, three of the five device tests, samples until two hours after deployment", "method": "Studies were performed by trained veterinary technicians at MIT's animal testing facilities. Yorkshire pigs weighing between 70 and 90 kg were used. All studies were terminal studies (meaning the animal was euthanized immediately afterward). […] The testing protocol is described further below.\nThis formulation procedure was carried out the morning or evening before each in vivo study, and the resulting solution it was stored at 4° C. until the time of administration.\nThe device was loaded with API and CO2 in the operating room where the animal was sedated and intubated. The device was deployed either by direct placement into the stomach through a laparotomy, or via an over-tube with an endoscope and snare. Of the five deployments performed with this device, the first three were performed by laparotomy, and the latter two by endoscope. Triggering generally occurred within 15 minutes and could be identified through recoil and minor foaming near the base of the device.\nBlood samples were collected by ear catheter or femoral catheter. […] The blood-glucose level was monitored at each draw using commercial glucose monitoring strips. […] The samples were then subsequently analyzed with a custom Ezyme-linked immunosorbent assay (ELISA) for […]."}
{"substance": "insulin", "values": [{"measurement": "blood glucose levels", "value": "drop in blood glucose levels"}]}
